Consider three compounds from patent US20100022553A1, “Therapeutic Combination Comprising an Aurora Kinase Inhibitor and Imatinib” (NERVIANO MEDICAL SCIENCES S.R.L., priority 2008, published 2010).

The subject of experiment [1] is Human myeloid leukemia K-562 cell line. The note with it: K562 s.c. in SCID mice, Imatinib 100 mg/kg per os, days 7-15; for Time to reach 1 g: Compound 1 15 mg/kg intraperitoneally twice a day; for T-C: delay of treated vs control tumors to reach 1 g, Compound 1 15 mg/kg i.p. The method, then:
SCID female mice, from Harlan (Italy), were maintained in cages with paper filter cover, food and bedding sterilized and water acidified.
For in vivo experiments 10^7 K562 cells were implanted subcutaneously in SCID mice.
Tumor growth and body weight were measured every 3 days. Tumor growth was assessed by caliper. […] This delay (T-C value) was defined as the difference of time (in days) required for the treatment group (T) and the control group(C) tumors to reach a predetermined size (1 g).
Toxicity was evaluated on the basis of body weight reduction.

Experiment [2] deals with T315I mutation of Abl (Bcr-Abl) (Homo sapiens, UniProt P00519, T315I). The note with it: cited from earlier work.

As for `CO[C@@H](C(=O)N1Cc2[nH]nc(NC(=O)c3ccc(N4CCN(C)CC4)cc3)c2C1)c1ccccc1` [Compound 1, N-[5-(2-Methoxy-2-phenyl-acetyl)-1,4,5,6-tetrahydro-pyrrolo[3,4-c]pyrazol-3-yl]-4-(4-methyl-piperazin-1yl)-benzamide], in experiment [1], the “Time to reach 1 g” value was 27.3 days and the T-C amounted to 11.5 days.

For the compound `Cc1ccc(NC(=O)c2ccc(CN3CCN(C)CC3)cc2)cc1Nc1nccc(-c2cccnc2)n1` [Imatinib], in experiment [1], the “Time to reach 1 g” value turned out to be 25.1 days and the T-C stood at 9.3 days.

On to `Cc1ccc(NC(=O)c2ccc(CN3CC[C@H](N(C)C)C3)c(C(F)(F)F)c2)cc1Nc1nccc(-c2cncnc2)n1` [Inno-406], for which, in experiment [2], the “activity against the T315I mutation” value is “inactive”.
